Values joined by “and” are separate entries in the source; they are usually repeats but may differ in a detail not shown here. Equal values may be shown once. “Also recorded” adds a separate entry of the source.
Legend:
[1] = test system: rat aortic smooth muscle cells; assay: Cytotoxicity (MTT) assay and TUNEL labeling, SNP-induced apoptosis in RASMCs; format: cell-based; conditions: for effect on Compound 3-induced cell proliferation / effect on Compound 3-mediated anti-apoptotic action / Cell survival (%) / effect on SNP-induced apoptosis: RASMCs; for effect on Compound 3-mediated anti-apoptotic action: inhibitor added to Compound 3 + SNP; for effect on SNP-induced apoptosis: SNP 1 mmol/L, Compound 3 30 μmol/L
Description: (§1) Cell Culture Rat aortic smooth muscle cells (RASMCs) were prepared from Sprague-Dawley rats and cultured in Dulbecco's modified Eagle's medium (DMEM) supplemented with 10% FBS, 100 units/mL penicillin and 100 μg/mL streptomycin (Gibco, Grand Island, N.Y.) as previously described (Yang et al. (2001) Br J Pharmacol. 132: 1531-1541). Cells within six generations were used in the present study. Cells were identified being the smooth muscle cells by immunostaining with monoclonal antibody specific for smooth muscle α-actin.
Cytotoxicity Assay The cytotoxicity assay was carried out using the MTT assay method. MTT (3-(4,5-dimethylthiazol-2-yl)-2,5-diphenyltetrazolium bromide, Sigma Chemical, St. Louis, Mo.) was dissolved in phosphate-buffered saline (PBS) at a concentration of 5 mg/mL and filtered (Millipore, Bedford, Mass.). From this stock solution, 10 μL/100 μL of medium was added to each well of a plate, and the plate was gently shaken and incubated at 37° C. for 2 hours. […] After the loading of MTT, the medium was replaced with 100 μL dimethylsulphoxide (DMSO). The extent of reduction of MTT to formazan within cells was quantified by the measurement of OD550 with an enzyme-linked immunosorbent assay (ELISA) reader.
In Situ Labeling of Apoptotic Cells In situ detection of apoptotic cells was carried out by using a terminal deoxynucleotidyl transferase (TdT) dUTP nick-end labeling (TUNEL) method with an apoptotic detection kit (Promega, Madison, Wis., USA) as described previously (Guh et al. (1998) Mol Pharmacol. 53: 467-474). The TUNEL method identifies apoptotic cells in situ by using TdT to transfer biotin-dUTP to the free 3′-OH of cleaved DNA. The biotin-labeled cleavage sites then were visualized by reaction with fluorescein conjugated avidin (avidin-fluorescein isothiocyanate). Photomicrographs were obtained with a fluorescence microscope (Nikon).

[2] = test system: intracellular cGMP levels; assay: Assay of cGMP contents; format: cell-based, rat
Description: as §1
Assay of cGMP Contents At confluence, monolayer cells were incubated with indicated agents for 10 minutes. Then cells were washed twice with ice-cold PBS and lysed with 0.5 mL NaOH (0.1 mol/L). 0.5 mL HCl (0.1 mol/L) was then added to neutralize the assay solution. After the centrifugation (3,000×g for 3 minutes), the supernatant was used for the detection of cGMP content by using a cGMP ELISA kit.

caspase-3 = assay: Determination of caspase-3 activity in RASMCs; format: cell-based, rat
Description: Determination of Caspase-3 Activity
The Caspase-3 activity was assayed with the Caspase-3 colorimetric assay kit (R&D Systems, Inc., Minneapolis, Minn.). After the treatment of cells with indicated agents for ten hours, cells were washed twice with ice-cold PBS, trypsinized, and centrifuged (800×g for 5 minutes), and the cell pellet was re-suspended in pre-cooled lysis buffer obtained from the Caspase-3 colorimetric assay kit. After 10 minutes of incubation on ice, cell homogenates were centrifuged at 10,000×g for 1 minute and supernatants were removed for the determination of caspase-3 activity. Proteolytic reactions were performed in a total volume of 100 μL reaction buffer containing 50 μL of cytosolic extracts and 5 μL DEVD-pNA obtained from the kit. The reaction mixture was incubated at 37° C. for one to two hours and the formation of p-nitroaniline was then measured at 405 nm by an ELISA reader.

phosphorylated Akt = assay: Western blot of phosphorylated Akt; format: cell-based, rat
Description: (§2) Western Blot Analysis After the exposure of cells to the indicated agents for four (for Bcl-2) or six (for cytochrome c) hours, cells were washed twice with ice-cold PBS and reaction was terminated by the addition of 100 μL ice-cold lysis buffer (10 mmol/L Tris-HCl, pH 7.4, 150 mmol/L NaCl, 1 mmol/L EGTA, 0.5 mmol/L phenylmethylsulfonyl fluoride (PMSF), 10 μg/mL aprotinin, 10 μg/mL leupeptin, and 1% Triton X-100). For the detection of phosphorylated Akt, 1 mmol/L Na3VO4, 1 mmol/L NaF, 50 mmol/L tetrasodium pyrophosphate, 10 nmol/L okadaic acid, 0.25% sodium deoxycholate were included in the lysis buffer. Protein content was determined by the Bio-Rad protein assay (Bio-Rad Laboratories, CA, USA). For Western blot analysis, cell lysates (25 μg/lane) were electrophoresized on 10-15% SDS-polyacrylamide gels, and transferred to a nitrocellulose membrane. The membranes were probed with anti-Bcl-2 or anti-α-tubulin monoclonal antibody, or anti-phosphorylated Akt polyclonal antibody. The transferred membranes were developed with a secondary anti-mouse or anti-rabbit antibody as we previously described (Guh et al. (1998) Eur. J. Pharmacol. 359: 281-284). Detection of signal was performed with an enhanced chemiluminescence detection kit (ECL; Amersham International, Little Chalfont, U.K.).

Bcl-2 = assay: Western blot of Bcl-2 levels; format: cell-based, rat
Description: as §2

cytochrome c = assay: Detection of cytochrome c release; format: cell-based, rat
Description: Detection of Cytochrome c Release Reaction Cells were trypsinized and centrifuged at 800×g for 10 minutes. Then, the cell pellet was re-suspended in 50 μL of extraction buffer containing 20 mmol/L HEPES, pH 7.5, 10 mmol/L KCl, 1.5 mmol/L MgCl2, 1 mmol/L EDTA, 1 mmol/L EGTA, 1 mmol/L dithithretol, 1 mmol/L PMSF) and incubated for 3 minutes on ice. Cells were managed with 30 strokes and centrifuged at 15,000×g for 15 minutes at 4° C. Aliquots of 20 μg protein were resolved on 15% SDS-polyacrylamide gel and then blotted to PVDF membranes. Membranes were incubated with anti-cytochrome c monoclonal antibody. Then, membranes were incubated with anti-mouse IgG and the expression of cytochrome c was detected as described previously.
Western Blot Analysis After the exposure of cells to the indicated agents for four (for Bcl-2) or six (for cytochrome c) hours, cells were washed twice with ice-cold PBS and reaction was terminated by the addition of 100 μL ice-cold lysis buffer (10 mmol/L Tris-HCl, pH 7.4, 150 mmol/L NaCl, 1 mmol/L EGTA, 0.5 mmol/L phenylmethylsulfonyl fluoride (PMSF), 10 μg/mL aprotinin, 10 μg/mL leupeptin, and 1% Triton X-100). […] Protein content was determined by the Bio-Rad protein assay (Bio-Rad Laboratories, CA, USA). […]

[3] = test system: LPS-induced septic death in mouse model; assay: LPS-induced endotoxic shock (septic death) and lung histology; format: in vivo, mice
Description: Induction of Endotoxic Shock and Histological Examination In these experiments, mice (25-30 g, ICR strain) were injected intraperitoneally with 60 mg/kg of LPS (dissolved in PBS), and Compound 3 (suspended in carboxymethyl cellulose) was orally administered after the injection of LPS for 2 and 6 hours. The survival rate was monitored every 3 to 6 hours after LPS injection. For histological examination, the lung tissues were put into the 4% paraformaldehyde and embedded in paraffin. The embedded tissues were sectioned at 6-μm thick, stained with hematoxylin-eosin, and analyzed using a microscopy.

NR8383 macrophages = assay: LPS/interferon γ-induced tumor necrosis factor-α release; format: cell-based; conditions: control 15.5±1.3, P=0.13, n=4
[4] = Reduction of cytochrome c by superoxide anion (xanthine/xanthine oxidase); format: biochemical; conditions: xanthine/xanthine oxidase system; control 42.0±2.1; P=0.4, n=4
[5] = Free radical-scavenging activity with 1,1-diphenyl-2-picrylhydrazyl; conditions: stable radical 1,1-diphenyl-2-picrylhydrazyl; data not shown
[6] = test system: murine macrophage RAW 264.7 cells; assay: LPS-evoked NO formation; format: cell-based; conditions: RAW 264.7, LPS 1 μg/mL, 24-hour; control 68.8±13.4; P=0.43, n=4
cyclooxygenase = conditions: Ko et al. (1994) Blood 84: 4226-4233; cited from earlier work
[7] = single agent alone, mean ± SEM, control 100
[8] = combination of SNP and Compound 3
[9] = inhibitor added to Compound 3 + SNP

COc1cccc(-c2cc(=O)c3ccccc3o2)c1N [PD98059]
effect on Compound 3-induced cell proliferation [1]: completely inhibited | effect on Compound 3-mediated anti-apoptotic action [1]: significantly reversed; also recorded: not PD98059 reversed

Cn1cc(C2=C(c3cn(CCCSC(=N)N)c4ccccc34)C(=O)NC2=O)c2ccccc21 [Ro-318220]
cell survival ([1]; Ro-318220 added to Compound 3 plus SNP, n=7): 107.1±3.1% | effect on Compound 3-mediated anti-apoptotic action [1]: little influence

OCc1ccc(-c2nn(Cc3ccccc3)c3ccccc23)o1 [Compound 3]
increase in cell number ([1]; Compound 3 alone, not statistically significant): 11% | Cell survival (%) ([1]; ODQ + Compound 3): 96.1 ± 4.2% | Cell survival (%) ([1]; ODQ + SNP + Compound 3): 69.6 ± 4.0 % | effect on SNP-induced apoptosis [1]: completely abolished | Cell survival (%) ([1]; SNP + Compound 3 (SNP 1 mmol/L, Compound 3 30 μmol/L)): 100.6±5.5% and 102.9 ± 8.1^+ % | ODQ-irresponsible action in Compound 3-mediated effect ([1]; remaining anti-apoptotic effect in presence of ODQ): about 20% | Cell survival (%) [1, 7]: 111.3 ± 8.8% | cGMP synthesis ([2]; Compound 3 alone, basal 2.3±0.3, 10 minutes): 4.2±0.8 fmol/well | cGMP formation [2, 8]: 252.8±81.8 fmol/well | increase of cGMP formation (folds) [2, 8]: more than sixty folds | effect on SNP-induced caspase-3 activity (caspase-3; SNP 1 mmol/L, RASMCs): completely inhibited | phosphorylated Akt expression (phosphorylated Akt; Compound 3 alone): profound increase | phosphorylated Akt expression (phosphorylated Akt; Compound 3 in combination with SNP): profound increase | effect on SNP-induced Bcl-2 down-regulation (Bcl-2; SNP 1 mmol/L): completely prevented | effect on SNP-induced cytochrome c release (cytochrome c; SNP 1 mmol/L): completely prevented | condition of survived mice after LPS initiation ([3]; LPS 60 mg/kg i.p., Compound 3 10 mg/kg oral post-treatment): remained vigorous more than one month | survival rate of mice ([3]; LPS 60 mg/kg i.p., Compound 3 10 mg/kg oral two hours after LPS): significantly increased | histological examination of lung tissues ([3]; post-treated Compound 3 group, LPS mice): intact blood vessels without the infiltration of blood cells | LPS/interferon γ-induced tumor necrosis factor-α release (NR8383 macrophages): 18.5 ± 1.2 ng/mL | reduction of cytochrome c by superoxide anion [4]: 40±0.6% | free radical-scavenging activity [5]: little free radical-scavenging activity | NO formation (nitrite) [6]: 53.4 ± 12.3 µmol/L | inhibition on cyclooxygenase activity (cyclooxygenase): no inhibition

CCCC(=O)Nc1nc2c(ncn2C2OC3COP(=O)([O-])OC3C2OC(=O)CCC)c(=O)[nH]1.[Na+] (centres unmarked) [dibutyl-cGMP]
effect on SNP-induced apoptosis [1]: significantly reverse

O=c1onc2cnc3ccccc3n12 [ODQ, reference compound]
effect on Compound 3-induced cell proliferation [1]: completely inhibited | effect on SNP-induced apoptosis [1]: no influence | effect on Compound 3-mediated anti-apoptotic action [1]: significantly reversed | Cell survival (%) [1, 7]: 99.5 ± 5.7% | cGMP level ([2]; ODQ + Compound 3 alone): the basal value | cGMP level ([2]; ODQ + combination of SNP and Compound 3): ~21 fmol/well | effect on Compound 3-mediated inhibition of caspase-3 activity (caspase-3; [9]): partially but significantly reversed | effect on Compound 3-induced phosphorylated Akt expression (phosphorylated Akt; Compound 3 alone or with SNP): profoundly inhibited | effect on preventive action of Compound 3 (Bcl-2 down-regulation) (Bcl-2; [9]): fully reversed | effect on preventive action of Compound 3 (cytochrome c release) (cytochrome c; [9]): fully reversed
